≈ marks a conversion by molar mass, not a printed value. Where only a bound is given, the exact number is not on record here.

For 15 compounds, MIC results are on record in DBAASP.

Assay in all cases: ≥ marks a high value that may be exact or a test limit, other limits are often not marked, values filed in µg/mL are converted to µM
Assay [1] deals with Staphylococcus aureus ATCC 6538.
Assay [2] relates to Pseudomonas aeruginosa ATCC 9027.
Assay [3] concerns Bacillus subtilis ATCC 6633.
For assay [4], the system named is Staphylococcus aureus ATCC 2592.
In assay [5] the test system is Candida albicans ATCC 2002.
Another assay relates to Bacillus subtilis.
The subject of assay [6] is Escherichia coli ATCC 25922.
Assay [7] relates to Pseudomonas aeruginosa ATCC 27853.
Assay [8] concerns Salmonella enterica subsp. enterica serovar Typhimurium ATCC 14028.
The next assay deals with Klebsiella pneumoniae.
Assay [9] relates to Staphylococcus aureus ATCC 25923.
For assay [10], the system named is Pseudomonas aeruginosa PAO1.
For assay [11], the system named is Staphylococcus aureus USA 300.
Assay [12] has as its system Staphylococcus aureus ATCC 29213.
Assay [13] relates to Candida albicans ATCC 90028.

As to `CC(C)C[C@H](NC(=O)[C@H](CCCCN)NC(=O)[C@H](CCCCN)NC(=O)[C@H](CC(C)C)NC(=O)[C@H](C)NC(=O)[C@H](CCCCN)NC(=O)[C@H](CC(C)C)NC(=O)[C@H](C)NC(=O)[C@H](CCCCN)NC(=O)[C@H](CCCCN)NC(=O)[C@H](C)NC(=O)[C@@H](N)Cc1ccccc1)C(N)=O` [FAKKALKALKKL], the MIC was 147 µM (≈ 200 µg/mL) in assay [1] and 73.6 µM (≈ 99.9 µg/mL) in [2].
On the same counts, the results for `CC(C)C[C@H](NC(=O)[C@H](CC(C)C)NC(=O)[C@H](C)NC(=O)[C@H](CCCCN)NC(=O)[C@H](C)NC(=O)[C@H](CC(C)C)NC(=O)[C@H](CCCCN)NC(=O)[C@H](CCCCN)NC(=O)[C@H](C)NC(=O)[C@@H](N)Cc1ccccc1)C(N)=O` [FAKKLAKALL] are 90.7 µM (≈ 99.9 µg/mL) and 90.7 µM (≈ 99.9 µg/mL).
On the same counts, the results for `CC(C)C[C@H](NC(=O)[C@H](CCCCN)NC(=O)[C@H](C)NC(=O)[C@H](CC(C)C)NC(=O)[C@H](CCCCN)NC(=O)[C@H](CC(C)C)NC(=O)[C@H](C)NC(=O)[C@H](CC(C)C)NC(=O)[C@H](CCCCN)NC(=O)[C@H](C)NC(=O)[C@H](CC(C)C)NC(=O)[C@H](CCCCN)NC(=O)[C@H](CCCCN)NC(=O)[C@H](C)NC(=O)[C@@H](N)Cc1ccccc1)C(N)=O` [FAKKLAKLALKLAKL] are 3.02 µM (≈ 5 µg/mL) and 3.02 µM (≈ 5 µg/mL).
In the case of `CC(C)C[C@H](NC(=O)[C@H](C)NC(=O)[C@H](CCCCN)NC(=O)[C@H](CCCCN)NC(=O)[C@H](C)NC(=O)[C@H](CC(C)C)NC(=O)[C@H](CCCCN)NC(=O)[C@H](C)NC(=O)[C@H](CC(C)C)NC(=O)[C@H](CC(C)C)NC(=O)[C@H](CCCCN)NC(=O)[C@H](C)NC(=O)[C@@H](N)Cc1ccccc1)C(N)=O` [FAKLLAKLAKKAL], the MIC amounted to 3.53 µM (≈ 5 µg/mL) in [1] and 35.3 µM (≈ 50 µg/mL) in assay [2].
On the same counts, the results for `CC(C)C[C@H](NC(=O)[C@H](CCCCN)NC(=O)[C@H](CC(C)C)NC(=O)[C@H](CCCCN)NC(=O)[C@H](CC(C)C)NC(=O)[C@H](C)NC(=O)[C@H](CC(C)C)NC(=O)[C@H](C)NC(=O)[C@H](CC(C)C)NC(=O)[C@H](CC(C)C)NC(=O)[C@H](CCCCN)NC(=O)[C@H](C)NC(=O)[C@@H](N)Cc1ccccc1)C(N)=O` [FAKLLALALKLKL] are 6.94 µM (≈ 9.99 µg/mL) and over 139 µM.
On the same counts, the results for `CC(C)C[C@H](NC(=O)[C@H](C)NC(=O)[C@H](CCCCN)NC(=O)[C@H](CCCCN)NC(=O)[C@H](CC(C)C)NC(=O)[C@H](C)NC(=O)[C@H](CCCCN)NC(=O)[C@H](CCCCN)NC(=O)[C@H](CC(C)C)NC(=O)[C@H](CCCCN)NC(=O)[C@H](CCCCN)NC(=O)[C@H](CC(C)C)NC(=O)[C@H](C)NC(=O)[C@H](CCCCN)NC(=O)[C@H](CCCCN)NC(=O)[C@H](CC(C)C)NC(=O)[C@H](C)NC(=O)[C@H](CCCCN)NC(=O)[C@H](CC(C)C)NC(=O)[C@H](C)NC(=O)[C@H](CC(C)C)NC(=O)[C@H](C)NC(=O)[C@@H](N)Cc1ccccc1)C(N)=O` [FALALKALKKALKKLKKALKKAL] are 9.85 µM (≈ 25 µg/mL) and 39.4 µM (≈ 100 µg/mL).
For `CC[C@H](C)[C@H](NC(=O)CNC(=O)[C@H](C)NC(=O)[C@@H](NC(=O)[C@H](CC(C)C)NC(=O)CNC(=O)[C@@H]1CCCN1C(=O)[C@H](CC(C)C)NC(=O)[C@@H](N)Cc1ccccc1)[C@@H](C)CC)C(=O)N[C@@H](C)C(=O)N[C@@H](CCCCN)C(=O)N[C@@H](CCSC)C(=O)N[C@@H](CC(C)C)C(N)=O` [FLPGLIAGIAKML], the MIC in assay [3] turned out to be 18.6 µM (≈ 25 µg/mL); in assay [4], 9.3 µM (≈ 12.5 µg/mL).
Take `CC[C@H](C)[C@H](NC(=O)[C@H](CCCCN)NC(=O)[C@H](CC(N)=O)NC(=O)[C@H](CC(C)C)NC(=O)[C@@H](NC(=O)[C@@H](NC(=O)[C@@H](NC(=O)[C@H](C)NC(=O)[C@H](C)NC(=O)[C@H](CC(N)=O)NC(=O)[C@H](CCCCN)NC(=O)[C@H](CC(C)C)NC(=O)CNC(=O)[C@H](CCC(=O)O)NC(=O)[C@H](CCCCN)NC(=O)[C@@H](NC(=O)[C@H](CO)NC(=O)[C@H](CC(=O)O)NC(=O)[C@H](Cc1c[nH]c2ccccc12)NC(=O)[C@H](Cc1ccccc1)NC(=O)CN)C(C)C)C(C)C)[C@@H](C)O)[C@@H](C)CC)C(=O)N[C@@H](CCCCN)C(=O)N[C@H]1CSSC[C@@H](C(=O)N2CCC[C@H]2C(=O)N2CCC[C@H]2C(=O)N[C@@H](C)C(=O)O)NC(=O)[C@H](CCC(=O)O)NC(=O)[C@H](CO)NC(=O)[C@H]([C@@H](C)CC)NC(=O)[C@H](CCCCN)NC1=O` [GFWDSVKEGLKNAAVTILNKIKCKISECPPA]: the minimal inhibitory concentration (MIC) in assay [4] is 14.9 µM (≈ 50 µg/mL); in assay [5], 3.72 µM (≈ 12.5 µg/mL); against Bacillus subtilis, 29.8 µM (≈ 99.9 µg/mL); in assay [6], 14.9 µM (≈ 50 µg/mL).
Take `CC[C@H](C)[C@H](NC(=O)CN)C(=O)NCC(=O)N[C@@H](CCCCN)C(=O)N[C@@H](Cc1cnc[nH]1)C(=O)N[C@H](C(=O)NCC(=O)N[C@@H](CCCCN)C(=O)N[C@@H](C)C(=O)N[C@@H](CC(C)C)C(=O)N[C@@H](CCCCN)C(=O)NCC(=O)N[C@@H](CC(C)C)C(=O)N[C@@H](CCCCN)C(=O)NCC(=O)N[C@@H](CC(C)C)C(=O)N[C@@H](CC(C)C)C(=O)N[C@@H](CCCCN)C(=O)NCC(=O)N[C@@H](CC(C)C)C(=O)NCC(=O)N[C@@H](CCC(=O)O)C(=O)N[C@@H](CS)C(=O)O)C(C)C` [GIGKHVGKALKGLKGLLKGLGEC]: the MIC in assay [7] was 2 µM (≈ 4.55 µg/mL); in assay [8], 1 µM (≈ 2.28 µg/mL); in the assay with Klebsiella pneumoniae, 1 µM (≈ 2.28 µg/mL); in assay [9], at least 128 µM; in assay [6], 0.707 µM (≈ 1.61 µg/mL).
As to `CC(C)C[C@H](NC(=O)[C@H](CC(C)C)NC(=O)[C@H](CCCCN)NC(=O)CNC(=O)[C@H](C)NC(=O)[C@H](C)NC(=O)[C@H](CCCCN)NC(=O)[C@H](C)NC(=O)[C@H](C)NC(=O)[C@H](CO)NC(=O)[C@H](CC(C)C)NC(=O)[C@H](CC(C)C)NC(=O)CN)C(N)=O` [GLLSAAKAAGKLL], the MIC in [10] was over 25 µM; in [11] it was 25 µM (≈ 30.3 µg/mL); in assay [6] it was over 25 µM.
In the case of `CC(C)C[C@H](NC(=O)[C@H](CC(C)C)NC(=O)[C@H](CCCCN)NC(=O)CNC(=O)[C@H](CC(C)C)NC(=O)[C@H](CC(C)C)NC(=O)[C@H](CO)NC(=O)[C@H](CC(C)C)NC(=O)[C@H](CO)NC(=O)[C@H](CC(C)C)NC(=O)[C@H](CC(C)C)NC(=O)CN)C(N)=O` [GLLSLSLLGKLL], the MIC in [10] was over 25 µM; in [11] it was 12.5 µM (≈ 15.3 µg/mL); in assay [6] it was 25 µM (≈ 30.6 µg/mL).
As for `CC[C@H](C)[C@H](NC(=O)[C@H](C)NC(=O)[C@@H](N)CCCCN)C(=O)N[C@H](C(=O)N[C@@H](CCC(N)=O)C(=O)N[C@@H](CCCN=C(N)N)C(=O)N[C@H](C(=O)N[C@@H](CCCCN)C(=O)N[C@@H](CC(=O)O)C(=O)N[C@@H](Cc1ccccc1)C(=O)N[C@@H](CC(C)C)C(=O)N[C@@H](CCCN=C(N)N)C(=O)O)[C@@H](C)CC)C(C)C` [KAIVQRIKDFLR], the MIC in assay [12] is 40 µM (≈ 59.5 µg/mL); in assay [7] it was 40 µM (≈ 59.5 µg/mL); in assay [13], at least 40 µM; in [6], 40 µM (≈ 59.5 µg/mL).
As for `CC[C@H](C)[C@H](NC(=O)[C@H](CCCN=C(N)N)NC(=O)[C@@H](N)CCCCN)C(=O)N[C@H](C(=O)N[C@@H](CCC(N)=O)C(=O)N[C@@H](CCCN=C(N)N)C(=O)N[C@@H](C)C(=O)N[C@@H](CCCCN)C(=O)N[C@@H](CC(=O)O)C(=O)N[C@@H](Cc1ccccc1)C(=O)N[C@@H](CC(C)C)C(=O)N[C@@H](CCCN=C(N)N)C(=O)O)C(C)C` [KRIVQRAKDFLR], the MIC is 40 µM (≈ 61.2 µg/mL) in assay [12], 40 µM (≈ 61.2 µg/mL) in assay [7], at least 40 µM in [13] and 40 µM (≈ 61.2 µg/mL) in assay [6].
As for `CC[C@H](C)[C@H](NC(=O)[C@H](CCC(N)=O)NC(=O)[C@H](CCCCN)NC(=O)[C@H](Cc1c[nH]c2ccccc12)NC(=O)[C@H](CC(C)C)NC(=O)[C@H](CCC(N)=O)NC(=O)CNC(=O)[C@H](CC(C)C)NC(=O)[C@H](CCCCN)NC(=O)[C@H](C)NC(=O)[C@H](CCC(=O)O)NC(=O)[C@H](CCCCN)NC(=O)[C@@H](NC(=O)[C@H](CCSC)NC(=O)[C@@H](NC(=O)[C@@H](NC(=O)[C@@H](NC(=O)[C@@H](N)CO)[C@@H](C)CC)[C@@H](C)CC)[C@@H](C)O)[C@@H](C)O)C(=O)N[C@@H](C)C(=O)N[C@H]1CSSC[C@@H](C(=O)O)NC(=O)[C@H]([C@@H](C)O)NC(=O)[C@H](CC(N)=O)NC(=O)[C@H](Cc2ccc(O)cc2)NC(=O)[C@H](CC(C)C)NC(=O)[C@H](CCCN=C(N)N)NC1=O` [SIITMTKEAKLGQLWKQIACRLYNTC], the MIC in [4] is 4.98 µM (≈ 15 µg/mL); in assay [5], 19.9 µM (≈ 60 µg/mL); in the assay on Bacillus subtilis, at least 39.8 µM; in assay [6], 39.8 µM (≈ 120 µg/mL).
For `CC(C)C[C@H](NC(=O)[C@H](C)NC(=O)[C@H](CC(C)C)NC(=O)[C@H](CCCCN)NC(=O)[C@H](C)NC(=O)[C@H](CC(C)C)NC(=O)[C@H](CCCCN)NC(=O)[C@H](CCCCN)NC(=O)[C@H](C)NC(=O)[C@H](CC(C)C)NC(=O)[C@H](CCCCN)NC(=O)[C@H](C)NC(=O)[C@H](CC(C)C)NC(=O)[C@H](CCCCN)NC(=O)[C@H](CCCCN)NC(=O)[C@H](C)NC(=O)[C@@H](N)C(C)C)C(N)=O` [VAKKLAKLAKKLAKLAL], the MIC came to 2.77 µM (≈ 5 µg/mL) in [1] and 8.3 µM (≈ 15 µg/mL) in assay [2].

The MIC is the lowest concentration found to suppress growth. High values mean weaker potency, low ones greater potency.
